Our source for the target mRNA inhibition values is the OligoGym collection.

The series deals with HSD17B13. The following applies: ASO, HepaRG.

After the bases stand the sugars from the 5' end (letter, count) and the backbone: PS all phosphorothioate, else s phosphorothioate and o phosphodiester by linkage. Methylation of C is not given here. e = 2'-O-(2-methoxyethyl) (MOE); k = constrained ethyl (cEt); d = 2'-deoxy (DNA); m = 2'-O-methyl

GCTGGAACAATATGGG (sugars k3 d10 k3, PS) returned a target mRNA inhibition (1 µM) of 36%. On the same count and under the same terms, then “GATTGGAATGCTACTT (sugars kkdddddddddkekek, PS)”, with 53%.

For GTATTTGGGTGTTCTG (sugars k3 d10 k3, PS), the target mRNA inhibition (1 µM) is 36%. Still for that read-out and setting: then GGGAATGCTCATATTA (sugars k3 d10 k3, PS), with 18%; and “GTTGATATTCTGTGGC (sugars k3 d1 m1 d8 k3, PS)”, with 68%; and ATAATAATAGCTCTAT (sugars k3 d10 k3, PS), with 1%. Still for that read-out and setting: the value for CCACTGTGACGATGTG (sugars k3 d10 k3, PS) was 0%; that for CATATCATTATCATGC (sugars k3 d10 k3, PS) was 66%.

CCCAAACATGGATGTT (sugars k3 d10 k3, PS) registered a target mRNA inhibition (1 µM) of 72%. The same measure, in the same setting: the value for AGACAAGAGTTCTTGC (sugars k3 d10 k3, PS) was 30%. Still for that read-out and setting: the value for AGGATTAATTCCCTTC (sugars k3 d10 k3, PS) was 19%; that for ACGAAGCCTGAATGCC (sugars k3 d10 k3, PS) was 52%. For CAACTATGTAATAGGC (sugars k3 d10 k3, PS), the target mRNA inhibition is, setting by setting: (0.02 µM) 1%; (0.078 µM) 17%; (0.313 µM) 42%; (1 µM) 79%; (1.25 µM) 73%; (5 µM) 92%. The sequence TCACCTTATTAATATC (sugars k3 d10 k3, PS) came in with a target mRNA inhibition (1 µM) of 0%. Still for that read-out and setting: then CAGTAGGTGTGTTTCA (sugars k3 d10 k3, PS), with 47%.

Under “1 µM”, “CTAGGGAAATCTTTCA (sugars k3 d9 k3 e1, PS)” had a target mRNA inhibition of 55%.

For the sequence “TGTGATTGAGTTCTCC (sugars k3 d1 m1 d8 k3, PS)”, where the note is “1 µM”, the target mRNA inhibition amounted to 34%. The same measure, in the same setting: the value for GATTCGAAACTATTCA (sugars k3 d10 k3, PS) was 57%; that for TGATTAATCTTGATGC (sugars k3 d10 k3, PS) was 15%; that for “ATCCTATATACATCCA (sugars kkdddddddddkekek, PS)” was 65%. Same read-out and setting: the value for ATTGAATTCACTATCT (sugars k3 d10 k3, PS) was 31%; that for TAGTCTTCAGCAAAGT (sugars k3 d10 k3, PS) was 49%. The same measure, in the same setting: the value for CCTTCATCTAACTAAC (sugars k3 d10 k3, PS) was 30%. GCCAATTCACATATGT (sugars k3 d10 k3, PS): the target mRNA inhibition (1 µM) is 34%. For the sequence “AGTCCATGCAAAAGCA (sugars k3 d9 k3 e1, PS)”, the target mRNA inhibition runs as follows: (0.02 µM) 1%; (0.078 µM) 15%; (0.313 µM) 43%; (1 µM) 80%; (1.25 µM) 74%; (5 µM) 85%. Sequence CTCTATTGGTGTTTTA (sugars k3 d10 k3, PS) showed a target mRNA inhibition (1 µM) of 32%. Still for that read-out and setting: the value for AATAATAGCTCTATTG (sugars k3 d10 k3, PS) was 0%; that for CCACTATCAGAACAGT (sugars k3 d10 k3, PS) was 31%; that for GACAAGAGTTCTTGCA (sugars k3 d10 k3, PS) was 22%. The same measure, in the same setting: then CTCTTGGGTCCATTGT (sugars k3 d10 k3, PS), with 40%.

For ATCAAGACATTCTAGC (sugars k3 d10 k3, PS), the target mRNA inhibition (1 µM) is 61%. Same read-out and setting: then GTCTTAAACCTTCCCT (sugars k3 d10 k3, PS), with 63%; and GGGCTAGAACTTAAAA (sugars k3 d10 k3, PS), with 35%. For the sequence CAAGACTTAAACACCA (sugars k3 d10 k3, PS), for the setting “1 µM”, the target mRNA inhibition was determined as 55%. Same read-out and setting: then “ATAGTCCATGCAAAAG (sugars k3 d9 k3 e1, PS)”, with 29%; and CTCCAAATTCCCAACC (sugars k3 d10 k3, PS), with 31%; and AGGATTAATCATGGGA (sugars k3 d10 k3, PS), with 37%. Same read-out and setting: then ATTGATTCGAAACTAT (sugars k3 d10 k3, PS), with 22%; and “AACAGTCTTAAACCTT (sugars kkdddddddddkekek, PS)”, with 37%; and TCTCTAAAGCAGGCTA (sugars k3 d10 k3, PS), with 60%. For the sequence AAGGCCTGAAGTTCTG (sugars k3 d10 k3, PS), the target mRNA inhibition (1 µM) worked out at 5%. The same measure, in the same setting: then GCACCCCATGGATCTA (sugars k3 d10 k3, PS), with 35%. For GGATGTTAGGACCCAG (sugars k3 d10 k3, PS), the target mRNA inhibition runs as follows: (0.02 µM) 4%; (0.078 µM) 18%; (0.313 µM) 69%; (1 µM) 81%; (1.25 µM) 89%; (5 µM) 93%. For GAGTCGGATTATTTTT (sugars k3 d10 k3, PS), the target mRNA inhibition (1 µM) is 44%. Still for that read-out and setting: the value for GTAATTCTAAACTAGT (sugars k3 d10 k3, PS) was 39%. The same measure, in the same setting: then CAGTATCCCCTCAAAT (sugars k3 d10 k3, PS), with 53%. “TAAGAGGCATGAAAGG (sugars k3 d9 k3 e1, PS)”: where the note is “1 µM”, the target mRNA inhibition is 36%.

In the case of “CCGTUTTGGGCTAATG (sugars k3 d1 m1 d8 k3, PS)”, for the setting “1 µM”, the target mRNA inhibition is 51%. For the sequence AAGAGCCAAACTGCTA (sugars k3 d10 k3, PS), the target mRNA inhibition came out at 0% (0.02 µM); 0% (0.078 µM); 11% (0.313 µM); 63% (1 µM); 46% (1.25 µM); 66% (5 µM). Consider CCCAACGCAACAGTTT (sugars k3 d10 k3, PS), for which the target mRNA inhibition is 4% (0.02 µM); 26% (0.078 µM); 54% (0.313 µM); 66% (1 µM); 78% (1.25 µM); 92% (5 µM). Sequence CAGCTATAGGTAGCTA (sugars k3 d10 k3, PS) came in with a target mRNA inhibition (1 µM) of 0%. On to ATGGTAAACTGTATGC (sugars k3 d10 k3, PS), for which the target mRNA inhibition worked out at 19% (0.02 µM); 23% (0.078 µM); 53% (0.313 µM); 78% (1 µM); 75% (1.25 µM); 89% (5 µM).

TTGGTTGGAGGCTGTA (sugars k3 d10 k3, PS) showed a target mRNA inhibition (1 µM) of 60%. Same read-out and setting: then CTCGGGAAGTTTAGAC (sugars k3 d10 k3, PS), with 47%; and “ATGTGAAGAGCTGGTA (sugars kkkddkddddddkkke, PS)”, with 56%; and ATGCAAAAGCATTCTA (sugars k3 d10 k3, PS), with 50%. Still for that read-out and setting: then TGAGAATTTAAGAGGG (sugars k3 d10 k3, PS), with 25%.
